Here are results for 23 molecules from patent US11155517B2, “4-substituted phenylamine derivatives and their use to protect crops by fighting undesired phytopathogenic micoorganisms” (PI INDUSTRIES LTD., priority 2016, dated 2021).

What all share (type): cell-based
The subject of one assay is Pyricularia oryzae. The assay can be described thus: microbe, parasite or virus in culture. To be noted: 168 h, read-out: % control compared to the untreated check (radial growth).
For a further assay, the system named is Rhizoctonia solani. Description: Rhizoctonia solani (rice sheath blight/potato black scurf) in vitro test, radial growth on Potato Dextrose Agar. To be noted: 168 h, 300 ppm, seven days, 25° C., read-out: % control compared to the untreated check (radial growth).
The next assay concerns Botrytis cinerea. The assay can be described thus: Botrytis cinerea (gray mold) in vitro test, radial growth on Potato Dextrose Agar. To be noted: 168 h, 300 ppm, seven days, 22° C., read-out: % (control) compared to the untreated check (radial growth).
A further assay concerns Alternaria solani. The assay can be described thus: Alternaria solani (early blight of tomato/potato) in vitro test, radial growth on Potato Dextrose Agar. The following applies: 168 h, 300 ppm, seven days, 25° C., read-out: % control compared to the untreated check (radial growth).
A further assay concerns Colletotrichum capsici. The assay can be described thus: Colletotrichum capsici (anthracnose) in vitro test, radial growth on Potato Dextrose Agar. The following applies: Colletotrichum truncatum, 168 h; 300 ppm; seven days, 25° C.; read-out: % control compared to the untreated check (radial growth).

Each structure is given as a SMILES string.

As to `CCN(C)C=Nc1cc(C)c(Cc2cccnc2)cc1Cl` [Compound 204, N′-(2-chloro-5-methyl-4-(pyridin-3-ylmethyl)phenyl)-N-ethyl-N-methylformimidamide], the inhibition of growth at 300 ppm in the assay on Pyricularia oryzae is more than 75%; with Rhizoctonia solani it was more than 80%; in the assay on Botrytis cinerea it was more than 80%; in the assay on Alternaria solani it was more than 75%; with Colletotrichum capsici it was more than 80%.

As for `Cc1cc(N=CN2CCSCC2)c(C)cc1Cc1ccccc1F` [Compound 85, N-(4-(2-fluorobenzyl)-2,5-dimethylphenyl)-1-thiomorpholinomethanimine], the inhibition of growth at 300 ppm was more than 75% with Pyricularia oryzae; more than 80% in the assay on Rhizoctonia solani; more than 80% in the assay with Botrytis cinerea; more than 75% in the assay with Alternaria solani; more than 80% in the assay with Colletotrichum capsici.

Take `CCN(C)C=Nc1cc(C)c(C(C#N)c2ccccc2)cc1C` (stereo not drawn) [Compound 127, N′-(4-(cyano(phenyl)methyl)-2,5-dimethylphenyl)-N-ethyl-N-methylformimidamide]: the inhibition of growth at 300 ppm in the assay on Pyricularia oryzae was more than 75%; in the assay on Rhizoctonia solani it was more than 80%; in the assay on Alternaria solani, more than 75%; in the assay on Colletotrichum capsici it was more than 80%.

Regarding `CCN(C)C=Nc1cc(C)c(Cc2cccc(Cl)c2F)cc1Cl` [Compound 123, N′-(2-chloro-4-(3-chloro-2-fluorobenzyl)-5-methylphenyl)-N-ethyl-N-methylformimidamide], the inhibition of growth at 300 ppm in the assay with Pyricularia oryzae is more than 75%; with Rhizoctonia solani it was more than 80%; in the assay with Botrytis cinerea, more than 80%; in the assay with Alternaria solani it was more than 75%; with Colletotrichum capsici, more than 80%.

As for `CCN(C)C=Nc1cc(C)c(Cc2ccccc2C)cc1Cl` [Compound 122, N′-(2-chloro-5-methyl-4-(2-methylbenzyl)phenyl)-N-ethyl-N-methylformimidamide], the inhibition of growth at 300 ppm in the assay on Pyricularia oryzae is more than 75%; in the assay with Rhizoctonia solani, more than 80%; in the assay with Alternaria solani, more than 75%; in the assay on Colletotrichum capsici it was more than 80%.

As to `CCN(C)C=Nc1cc(Cl)c(Cc2cccc(OC(F)(F)F)c2)cc1Cl` [Compound 182, N′-(2,5-dichloro-4-(3-(trifluoromethoxy)benzyl)phenyl)-N-ethyl-N-methylformimidamide], the inhibition of growth at 300 ppm in the assay with Pyricularia oryzae was more than 75%; with Rhizoctonia solani, more than 80%; in the assay on Botrytis cinerea, more than 80%; in the assay on Alternaria solani, more than 75%.

For the molecule `CCN(C)C=Nc1cc(C)c(Cc2cccc(C(C)C#N)c2)cc1C` (stereo not drawn) [Compound 107, N′-(4-(3-(1-cyanoethyl)benzyl)-2,5-dimethylphenyl)-N-ethyl-N-methylformimidamide], the inhibition of growth at 300 ppm is more than 75% in the assay with Pyricularia oryzae; more than 80% in the assay with Rhizoctonia solani; more than 80% in the assay on Botrytis cinerea; more than 75% with Alternaria solani; more than 80% with Colletotrichum capsici.

`CCN(C)C=Nc1cc(C)c(Cc2ccc(Cl)c(F)c2)cc1Cl` [Compound 95, N′-(2-chloro-4-(4-chloro-3-fluorobenzyl)-5-methylphenyl)-N-ethyl-N-methylformimidamide]: the inhibition of growth at 300 ppm with Pyricularia oryzae is more than 75%; with Rhizoctonia solani, more than 80%; in the assay with Botrytis cinerea, more than 80%; in the assay on Alternaria solani, more than 75%; with Colletotrichum capsici, more than 80%.

On to `CCN(C)C=Nc1cc(C)c(Cc2cccc(C)c2)cc1S(C)(=O)=O` [Compound 273, N-ethyl-N-methyl-N′-(5-methyl-4-(3-methylbenzyl)-2-(methylsulfonyl)phenyl)formimidamide], for which the inhibition of growth at 300 ppm was more than 75% with Pyricularia oryzae, more than 80% in the assay on Rhizoctonia solani, more than 80% in the assay on Botrytis cinerea and more than 75% in the assay on Alternaria solani.

As for `CCN(C)C=Nc1cc(Cl)c(Cc2ccccc2C)cc1Cl` [Compound 151, N′-(2,5-dichloro-4-(2-methylbenzyl)phenyl)-N-ethyl-N-methylformimidamide], the inhibition of growth at 300 ppm in the assay on Pyricularia oryzae is more than 75%; in the assay with Rhizoctonia solani, more than 80%; with Botrytis cinerea, more than 80%; in the assay with Alternaria solani, more than 75%.

For the molecule `Cc1cc(N=CN(CC2CC2)C(C)C)c(C)cc1Cc1ccccc1Cl` [Compound 89, N′-(4-(2-chlorobenzyl)-2,5-dimethylphenyl)-N-(cyclopropylmethyl)-N-isopropylformimidamide], the inhibition of growth at 300 ppm with Pyricularia oryzae is more than 75%; in the assay with Rhizoctonia solani, more than 80%; in the assay with Botrytis cinerea, more than 80%; in the assay on Alternaria solani it was more than 75%.

In the case of `CCN(C)C=Nc1cc(C(F)(F)F)c(Cc2cccc(C(F)(F)F)c2)cc1F` [Compound 232, N-ethyl-N′-(2-fluoro-5-(trifluoromethyl)-4-(3-(trifluoromethyl)benzyl)phenyl)-N-methylformimidamide], the inhibition of growth at 300 ppm with Pyricularia oryzae is more than 75%; in the assay on Rhizoctonia solani it was more than 80%; in the assay on Botrytis cinerea, more than 80%; with Alternaria solani it was more than 75%.

As to `CCN(C)C=Nc1cc(Cl)c(Cc2cccc(Cl)c2)cc1Cl` [Compound 152, N′-(2,5-dichloro-4-(3-chlorobenzyl)phenyl)-N-ethyl-N-methylformimidamide], the inhibition of growth at 300 ppm is more than 75% with Pyricularia oryzae, more than 80% with Rhizoctonia solani, more than 80% in the assay with Botrytis cinerea and more than 75% in the assay on Alternaria solani.

Consider `CCN(C)C=Nc1cc(C(F)(F)F)c(Cc2cccc(Cl)c2)cc1C1CC1` [Compound 265, N′-(4-(3-chlorobenzyl)-2-cyclopropyl-5-(trifluoromethyl)phenyl)-N-ethyl-N-methylformimidamide], for which the inhibition of growth at 300 ppm in the assay with Pyricularia oryzae is more than 75%; with Rhizoctonia solani, more than 80%; in the assay with Botrytis cinerea, more than 80%; in the assay with Alternaria solani, more than 75%.

Take `Cc1cc(N=CN(CC2CC2)C(C)C)c(C)cc1Cc1ccccc1F` [Compound 88, N-(cyclopropylmethyl)-N′-(4-(2-fluorobenzyl)-2,5-dimethylphenyl)-N-isopropylformimidamide]: the inhibition of growth at 300 ppm in the assay with Pyricularia oryzae is more than 75%; with Rhizoctonia solani, more than 80%; in the assay on Botrytis cinerea, more than 80%; with Alternaria solani, more than 75%.

As to `CCN(C)C=Nc1cc(C#N)c(Cc2ccccc2F)cc1C` [Compound 247, N′-(5-cyano-4-(2-fluorobenzyl)-2-methylphenyl)-N-ethyl-N-methylformimidamide], the inhibition of growth at 300 ppm with Pyricularia oryzae was more than 75%; with Rhizoctonia solani it was more than 80%; in the assay on Botrytis cinerea, more than 80%; in the assay with Alternaria solani, more than 75%.

As to `CCN(C)C=Nc1cc(Cl)c(Cc2cccc(C)c2)cc1Cl` [Compound 141, N′-(2,5-dichloro-4-(3-methylbenzyl)phenyl)-N-ethyl-N-methylformimidamide], the inhibition of growth at 300 ppm in the assay on Pyricularia oryzae is more than 75%; in the assay with Rhizoctonia solani, more than 80%; in the assay on Botrytis cinerea, more than 80%; with Alternaria solani it was more than 75%.

On to `Cc1cc(N=CN2CCCCC2)c(Cl)cc1Cc1cccc(F)c1` [Compound 39, N-(2-chloro-4-(3-fluorobenzyl)-5-methylphenyl)-1-(piperidin-1-yl)methanimine], for which the inhibition of growth at 300 ppm is more than 75% in the assay with Pyricularia oryzae, more than 80% in the assay with Rhizoctonia solani, more than 75% in the assay on Alternaria solani and more than 80% in the assay with Colletotrichum capsici.

For the molecule `CCN(C)C=Nc1cc(C)c(Cc2cccc(C(F)(F)F)c2)cc1F` [Compound 205, N-ethyl-N′-(2-fluoro-5-methyl-4-(3-(trifluoromethyl)benzyl)phenyl)-N-methylformimidamide], the inhibition of growth at 300 ppm with Pyricularia oryzae is more than 75%; in the assay with Rhizoctonia solani it was more than 80%; with Alternaria solani, more than 75%; in the assay on Colletotrichum capsici it was more than 80%.

On to `CCN(C)C=Nc1cc(C(F)(F)F)c(Cc2cccc(F)c2)cc1F` [Compound 230, N-ethyl-N′-(2-fluoro-4-(3-fluorobenzyl)-5-(trifluoromethyl)phenyl)-N-methylformimidamide], for which the inhibition of growth at 300 ppm in the assay with Pyricularia oryzae is more than 75%; with Rhizoctonia solani, more than 80%; in the assay with Botrytis cinerea it was more than 80%; in the assay with Alternaria solani, more than 75%.

As to `CCN(C)C=Nc1cc(C#N)c(Cc2cccc(C)c2)cc1C` [Compound 251, N′-(5-cyano-2-methyl-4-(3-methylbenzyl)phenyl)-N-ethyl-N-methylformimidamide], the inhibition of growth at 300 ppm is more than 75% in the assay on Pyricularia oryzae, more than 80% in the assay with Rhizoctonia solani, more than 80% in the assay on Botrytis cinerea and more than 75% with Alternaria solani.

In the case of `CCN(C)C=Nc1cc(C)c(Cc2c(F)cccc2F)cc1Cl` [Compound 203, N′-(2-chloro-4-(2,6-difluorobenzyl)-5-methylphenyl)-N-ethyl-N-methylformimidamide], the inhibition of growth at 300 ppm in the assay on Pyricularia oryzae is more than 75%; in the assay on Alternaria solani it was more than 75%; with Colletotrichum capsici it was more than 80%.

On to `CCN(C)C=Nc1cc(C)c(Cc2ccccc2C#N)cc1Cl` [Compound 100, N′-(2-chloro-4-(2-cyanobenzyl)-5-methylphenyl)-N-ethyl-N-methylformimidamide], for which the inhibition of growth at 300 ppm was more than 75% in the assay with Pyricularia oryzae, more than 80% with Rhizoctonia solani, more than 75% with Alternaria solani and more than 80% in the assay with Colletotrichum capsici.
